Measurements: US20150174123A1, “OXABICYCLOHEPTANES AND OXABICYCLOHEPTENES FOR THE TREATMENT OF REPERFUSION INJURY” (priority 2012, published 2015)
pIC50: −log10 of the molar value. Where “and” joins values, the source holds several entries; their conditions need not be identical. Identical values can stand only once. Entries after “also recorded” stand apart in the source; their conditions may differ. Like-named read-outs stand apart in the source and are kept apart here.

Legend:
[1] = test system: distal end of a flap graft; test: Survival of tissue at the distal end of a skin flap graft (necrosis by planimetry and photographs); format: in vivo, in-bred rats
Description: An ALZET pump (model 1007D, reservoir volume 100 ul) was implanted subcutaneously under anesthesia subcutaneously four days before creating a skin flap again under anesthesia. The pump in control animals contained sodium chloride and the pump in treated animals contained 0.55 mg of LB-100. The pump delivers 0.5 ul/hour+/−10% so each animal received about 12 ul/day for 8 days, 4 days prior to raising the graft and for the first 4 days after creation of the graft. There were 10 animals in each group.
The animals were sacrificed on day 7 following creation of the flap, the amount of necrosis at the end of the flap was measured by planimetry. The area of necrosis at the end of the flap was divided by total surface area of the entire flap and expressed as a percentage.
The visual appearance of the flaps was also inspected. FIGS. 1a-j show control rats 1-10 on day 7 and FIGS. 2a-j show treatment rats 1-10 on day 7. The treatment rats had received LB-100.

[2] = Toxicokinetic studies in rats; format: in vivo; settings: doses known to inhibit PP2A in tissue of rodents
[3] = Toxicokinetic studies in dogs; format: in vivo; settings: doses known to inhibit PP2A in tissue of rodents
Akt [4] = test: Example 3: phosphorylation and activation of Akt in mammalian cells; format: cell-based; settings: mammalian cells incl. cardiac, brain, endothelial cells; no data given
mammalian tissue = test: Example 4: reperfusion injury in mammalian tissue that has suffered an ischemia; format: in vivo; settings: mammalian tissue after ischemia; no data given
Description: (§1) LB100, LB102 or LB107 are tested in an animal model of cardiac ischemia-reperfusion injury.
The mammalian tissue includes, but is not limited to, cardiac tissue, brain tissue and endothelial tissue.

heart = test: Example 5: tissue damage from reperfusion injury in the heart after myocardial infarction; format: in vivo; settings: following myocardial infarction; no data given
Description: as §1

[5] = Example 5: sepsis, vascular leakage and endothelial dysfunction from reperfusion injury; format: in vivo; settings: subject suffering from sepsis; no data given
PP2A [6] = target: PP2A (Homo sapiens, UniProt P67775); settings: cited from earlier work; for PP2A inhibition: statement in words
Sequence of PP2A (Homo sapiens, UniProt P67775) (P67775 whole entry): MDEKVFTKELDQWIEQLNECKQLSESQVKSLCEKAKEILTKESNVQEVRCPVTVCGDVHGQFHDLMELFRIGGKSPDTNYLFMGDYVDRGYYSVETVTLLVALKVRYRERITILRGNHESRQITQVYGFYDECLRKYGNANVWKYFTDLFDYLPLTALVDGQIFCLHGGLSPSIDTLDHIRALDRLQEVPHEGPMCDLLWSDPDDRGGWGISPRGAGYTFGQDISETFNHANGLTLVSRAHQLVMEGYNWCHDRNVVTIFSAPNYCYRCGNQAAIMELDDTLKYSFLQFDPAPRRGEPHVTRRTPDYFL

PP2A [7] = settings: in vitro in human cancer cells; cited from earlier work
PP2A [8] = settings: xenografts of human tumor cells in mice, given parenterally; cited from earlier work
cancer cells = settings: mouse model systems; cited from earlier work
Akt [9] = settings: Lu et al. 2009; US patent; cited from earlier work
PP1 = settings: Lu et al. 2009(a); cited from earlier work
pig myocardium = settings: cited from earlier work
[10] = young and aged rats; cited from earlier work
endothelial barrier = settings: septic insult; concentration that inhibits PP2A activity; cited from earlier work
[11] = test system: mouse skeletal muscle endothelial cells; settings: cited from earlier work
[12] = test system: cardiac tissue (myocardium); settings: given before or after onset of oxygen deprivation, cited from earlier work
rabbit cells = rabbit cells in vitro; cited from earlier work
pig cells = pig cells in vitro; cited from earlier work
[13] = given orally to mice; cited from earlier work

## CN1CCN(C(=O)C2C(C(=O)O)[C@H]3CC[C@@H]2O3)CC1 (some centres unmarked) [LB-100]
[1]; average of 10 treatment rats, day 7, control average 41.0627243
  Average area of necrosis (%): 31.97%
[1]; day 7, distal ends of the flap, vs control rats
  Visual appearance of flaps (photographs): less extensive necrosis
[1]; individual treatment rats 1-10, day 7 after flap creation, pump with 0.55 mg LB-100
  Necrosis (area by planimetry): 64147 and 66886 and 77327 and 91515 and 112275 and 55473 and 63777 and 66144 and 37181 and 77089
[1]; individual treatment rats 1-10, day 7 after flap creation, pump with 0.55 mg LB-100, about 12 ul/day for 8 days
  Area of necrosis at the end of the flap divided by total surface area of the flap (%): 31.96% and 28.88% and 30.7% and 39.47% and 40.43% and 30.66% and 33.77% and 25.95% and 24.03% and 33.9%
[1]; treated vs control rats, planimetry, day 7
  Mean decrease in extent of necrosis in treated animals: 22%
[2]
  Toxicity: acceptable and reversible toxicity
[3]
  Toxicity: acceptable and reversible toxicity
Akt [4]
  Activation of Akt: increase activation of Akt
  Dephosphorylation and inactivation of Akt by PP2A: reduce dephosphorylation and inactivation of Akt
  Phosphorylation of Akt: increase phosphorylation of Akt
Mammalian tissue
  Reperfusion injury: reduce reperfusion injury
heart
  Tissue damage associated with reperfusion injury in the heart: reduce tissue damage; also recorded: prevent tissue damage
[5]
  Endothelial dysfunction associated with reperfusion injury: reduce endothelial dysfunction
  Vascular leakage associated with reperfusion injury: reduce vascular leakage
PP2A [6]
  PP2A inhibition: effective inhibitors of PP2A
PP2A [7]
  PP2A inhibition: inhibitors of PP2A
PP2A [8]
  PP2A inhibition: inhibitors of PP2A
Cancer cells
  Growth of cancer cells: inhibit the growth of cancer cells
Akt [9]
  Phosphorylation of Akt: increased phosphorylation of Akt

## CC(C)(C)OC(=O)N1CCN(C(=O)C2C(C(=O)O)[C@H]3CC[C@@H]2O3)CC1 (some centres unmarked) [LB-102]
Akt [4]
  Activation of Akt: increase activation of Akt
  Dephosphorylation and inactivation of Akt by PP2A: reduce dephosphorylation and inactivation of Akt
  Phosphorylation of Akt: increase phosphorylation of Akt
Mammalian tissue
  Reperfusion injury: reduce reperfusion injury
heart
  Tissue damage associated with reperfusion injury in the heart: reduce tissue damage; also recorded: prevent tissue damage
[5]
  Endothelial dysfunction associated with reperfusion injury: reduce endothelial dysfunction
  Vascular leakage associated with reperfusion injury: reduce vascular leakage
PP2A [6]; read-out: IC50 PP2A, Lu et al. 2009(a)
  pIC50: ~6.40
PP2A [6]
  PP2A inhibition: effective inhibitors of PP2A
PP1
  pIC50: ~5.10
PP2A [7]
  PP2A inhibition: inhibitors of PP2A
PP2A [8]
  PP2A inhibition: inhibitors of PP2A
Cancer cells
  Growth of cancer cells: inhibit the growth of cancer cells
Akt [9]
  Phosphorylation of Akt: increased phosphorylation of Akt

## C=C1[C@@H](O)[C@@H]2O[C@]3(CC[C@H](/C=C/[C@@H](C)[C@@H]4CC(C)=C[C@@]5(O[C@H](C[C@@](C)(O)C(=O)O)CC[C@H]5O)O4)O3)CC[C@H]2O[C@@H]1[C@@H](O)C[C@H](C)[C@H]1O[C@@]2(CCCCO2)CC[C@H]1C [okadaic acid]
Pig myocardium; heart tissue infused with the inhibitor
  Activity of phosphatases, especially PP2A, in heart tissue: decreased
Pig myocardium; pig, in vivo model
  Protection of myocardium against ischemia: protected pig myocardium against ischemia
[10]
  Cellular death following induced MI: reduced cellular death
Endothelial barrier
  Endothelial barrier disruption: decreases endothelial barrier disruption
[11]
  Endothelial barrier function: preserved endothelial barrier function

## C[C@@](O)(/C=C/[C@H]1CC=CC(=O)O1)[C@@H](C[C@@H](O)\C=C/C=C\C=C\CO)OP(=O)(O)O [fostriecin]
[12]
  Size of infarction of cardiac tissue / injury: minimizes the size of infarction
[12]; listed as FOS
  Size of infarction of cardiac tissue / injury: reduces injury
Rabbit cells
  Protection from injury: afforded protection from injury
Pig cells
  Protection from injury: afforded protection from injury

## COC[C@@H]([C@H](O)[C@H](O)C(=O)NCC[C@H](C)c1nc(/C=C/C[C@@H]2O[C@]3(C[C@@H](O)[C@@H]2C)O[C@H]([C@H](C[C@H](O)[C@H](C)[C@H](O)[C@H](C)/C=C(C)/C(C)=C/C=C/C(C)=C\C#N)OC)[C@H](OP(=O)(O)O)C3(C)C)co1)N(C)C [calyculin A]
Rabbit cells
  Protection from injury: afforded protection from injury
Pig cells
  Protection from injury: afforded protection from injury

## COC(=O)C1C(C(=O)N2CCN(C)CC2)[C@@H]2CC[C@H]1O2 (stereo in doubt) [LB-107, 3-(4-Methylpiperazine-1-carbonyl)-7-oxa-bicyclo[2,2,1]heptane-2-carboxylic acid methyl ester]
Akt [4]
  Activation of Akt: increase activation of Akt
  Dephosphorylation and inactivation of Akt by PP2A: reduce dephosphorylation and inactivation of Akt
  Phosphorylation of Akt: increase phosphorylation of Akt
Mammalian tissue
  Reperfusion injury: reduce reperfusion injury
heart
  Tissue damage associated with reperfusion injury in the heart: reduce tissue damage; also recorded: prevent tissue damage
[5]
  Endothelial dysfunction associated with reperfusion injury: reduce endothelial dysfunction
  Vascular leakage associated with reperfusion injury: reduce vascular leakage
PP2A [6]
  PP2A inhibition: effective inhibitors of PP2A
[13]
  Oral activity: active when given orally
